The test system of the assay is Sprague Dawley (SD) rat. It counts as in vivo. Here is the method: The general anesthetic activity of Propofol novel drug compound 1004 was evaluated in rats. All animal experiments were performed as per CPCSEA guidelines. The studies were carried out in Sprague Dawley (SD) rat in the weight range […] by intravenous tail vein dosing over a period of 10 seconds. The formulations of the compound 1004 for IV dosing in rats were prepared in pre-mix PEG400 and saline. Formulations of 1004 equivalent to 5 mpk (14 mpk of compd. 1004) and 7.5 mpk (equivalent to 21 mpk of compound 1004) of parent drug Propofol were prepared in 15% PEG400 and 85% normal saline. The monitoring of distinguishable levels of sedation was started during the dosing period and continued till animals regained consciousness. The onset, duration of sleep and recovery time was recorded.

Like-named read-outs stand apart in the source and are kept apart here.

Turning to `CNC(=O)c1ccc[n+](COC(=O)Oc2c(C(C)C)cccc2C(C)C)c1.[I-]` [Compound 1004, 1-(((2,6-diisopropylphenoxy)carbonyloxy)methyl)-3-(methylcarbamoyl)pyridinium iodide], the Recovery entry (SD rat, IV tail vein, Propofol Eq. 7.5 mpk, vehicle 15% PEG400, 85% NS) is reported as “Complete”. Also, under “onset of GA, SD rat, IV tail vein over 10 seconds, Propofol Eq. 7.5 mpk, vehicle 15% PEG400, 85% NS”, the “General Anesthesia (GA)” value is “After 1 min”.

On to `CC(C)c1cccc(C(C)C)c1O` [Propofol, 2,6-diisopropylphenol], for which, where the note is “rat, in vivo”, the “General Anesthesia (GA)” value was “No GA” and the Recovery result is listed as “Complete”.
